# Assay results as given in patent publication US9708321B2, “Spiro-quinazolinone derivatives and their use as positive allosteric modulators of mGluR4” (Merck Patent GmbH, priority 2013, dated 2017).
# pEC50: −log10 of the molar value.
# Molecular target: T1, hmGluR4 (Homo sapiens, UniProt Q14833)
# T1 construct: host or cells: HEK293T
# Assay: HEK-293 mGluR4 cells cAMP assay with EC20 L-Glutamate (HTRF)
# Format: cell-based
# Settings: positive allosteric activity at EC20 L-Glutamate, 10 μM Forskolin, HEK293T mGluR4 cells, cAMP HTRF; read-out: hrmGluR4/HEK293T-hmGluR4 (EC50)
# Protocol: II. Biological Assays HEK-293 mGluR4 Cells cAMP Assay with EC20 L-Glutamate
# Using mGluR4 suspension cell format, 10 μM Forskolin (final conc.) used to induce the production of cAMP.
# Test the positive allosteric activity of the compounds of the invention at EC20 (2.3 μM for mGluR4 and 4.3 μM for mGluR6) L-Glutamate,
# cAMP dymanic2 kit is intended for the direct quantitative determination of cAMP and its principle is based on HTRF technology.
# • Cells: HEK293T mGluR4 cells from Multispan, cat# C1191a lot# C1191a-040910 • Culture Media: DMEM+GlutaMAX1+10% dialyzed FBS, 100 mM Sodium Pyruvate, 1 ug/ml puromycin. • Glutamine Starvation Media: DMEM without GlutaMax for plating the cells (glutamine starvation overnight). DMEM high Glucose, without phenol red, glutamine, or sodium pyruvate+10% dialyzed FBS, 100 mM Sodium Pyruvate, 1 ug/ml puromycin, 10 mM Hepes. • Hanks' balanced Salt Solution, HBSS from Invitrogen • Greiner 384 well white low volume high base plate (784075) • cAMP dynamic2 from Cisbio Bioassays • Glutamate: L-Glutamaic acid, monosodium salt, Monohydrate, 98%, from Sigma-Aldrich • Cell Preparation: split cells at 80%-90% confluence. The following day, rinse the cells with DMEM without GlutaMax and change to Glutamine Starvation Media. Incubate overnight. Assay: • Prepare compound plate: Perform compound serial dilution (uses Matrix 4341 plate), using the Bravo liquid handling platform protocol (compound serial dilution) which adds DMSO to columns 1-24 (except cols. 3 and 13). Serial dilute compounds located in columns 3 and 13 at a 1:3 ratio; 10 points (10 ul of 3 mM compound into 20 ul DMSO). Use the Bravo liquid handling platform to transfer 1 ul from the serial dilution plate into Matrix 4314 plate to create stamp plates. Prepare Compound Dilution Buffer: • Dilute 20 mM Forskolin (in DMSO) stock solution in HBSS buffer to make a 20 uM solution (forskolin buffer; 2× solution). To the forskolin buffer, add glutamate to a concentration of 8 uM (compound dilution buffer; 2× EC20 glutamate and forskolin). • Using a multidrop, add 50 ul/well of compound dilution buffer to columns 1-22 of the 2 ul compound stamp plate. Columns 23 and 24 receive forskolin buffer containing 400 uM glutamate (EC100 glutamate; 2× solution). Columns 1 and 2 receive compound dilution buffer containing EC20 glutamate, which is the basal control. • Add a glutamate dose response to row P of compound plate. Prepare the dose response by serial diluting glutamate at a 1:3 ratio in forskolin buffer starting at 2 mM glutamate (2×). Dilute the glutamate 9 times and transfer to compound plate. Prepare Cell Plates: • Harvest cells: Rinse cells with pre-warmed HBSS-10 mM HEPES (without Ca Mg) and dissociate the cells from the flask with versene. Centrifuge the cells, remove the supernatant and suspend in pre-warmed HBSS+10 mM Hepes. Count the cells and centrifuge. Remove the supernatant and suspend the cells in HBSS+Hepes (with Ca Mg) at a density of 400,000 cells/ml. Perform Assay: • Dispense 5 ul from the diluted compound plate into Greiner low volume cell plate using the Bravo liquid handling platform. Using a Multidrop with the small tubing cassette, dispense 5 ul of cells (2000 cells/well) onto the compounds contained in the low volume plates. Incubate the cells at 37° C., 5% CO2 for 30 minutes in the incubator. Assay for cAMP: • Prepare cAMP-d2 and anti-cAMP-Crytate according to the instructions for the two step assay (see Cisbio manual) and add 10 ul of the mixed reagent to each well of the assay plate using the Multidrop. Incubate at room temperature for 60 minutes and read on the Envision plate reader using the mGluR low volume cAMP HTRF 384 well protocol.
# T1 sequence (Q14833 33-912): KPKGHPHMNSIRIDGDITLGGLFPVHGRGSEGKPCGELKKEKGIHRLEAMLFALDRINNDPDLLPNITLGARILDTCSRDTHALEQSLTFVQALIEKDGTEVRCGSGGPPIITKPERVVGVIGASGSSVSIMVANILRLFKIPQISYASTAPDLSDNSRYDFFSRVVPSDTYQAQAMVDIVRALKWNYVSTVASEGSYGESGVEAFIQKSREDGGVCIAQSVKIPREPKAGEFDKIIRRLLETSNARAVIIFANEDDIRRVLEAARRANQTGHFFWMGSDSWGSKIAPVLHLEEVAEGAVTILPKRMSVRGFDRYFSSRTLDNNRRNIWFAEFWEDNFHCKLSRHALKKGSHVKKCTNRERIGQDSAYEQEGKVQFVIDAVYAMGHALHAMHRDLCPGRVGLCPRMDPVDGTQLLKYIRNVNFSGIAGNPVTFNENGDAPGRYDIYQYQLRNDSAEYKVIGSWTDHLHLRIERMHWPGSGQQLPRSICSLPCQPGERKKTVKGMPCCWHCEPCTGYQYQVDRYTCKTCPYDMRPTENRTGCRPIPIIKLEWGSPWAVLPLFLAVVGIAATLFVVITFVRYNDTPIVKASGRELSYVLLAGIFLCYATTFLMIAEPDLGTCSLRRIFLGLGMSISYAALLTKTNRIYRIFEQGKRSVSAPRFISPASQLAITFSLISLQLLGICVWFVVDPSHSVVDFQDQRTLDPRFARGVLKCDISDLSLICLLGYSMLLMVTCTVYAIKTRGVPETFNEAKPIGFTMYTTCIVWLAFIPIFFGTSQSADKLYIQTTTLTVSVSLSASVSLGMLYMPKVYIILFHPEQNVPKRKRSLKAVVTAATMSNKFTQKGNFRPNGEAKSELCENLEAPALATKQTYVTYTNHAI
row,Compound,pEC50
1,"CC(=O)c1ccc2c(c1)NC1(CCN(Cc3ccc(F)c(F)c3)CC1)N(c1ccc(OC(F)(F)F)cc1)C2=O [Compound 77, 7′-Acetyl-1-(3,4-difluorobenzyl)-3′-(4-(trifluoromethoxy)phenyl)-1′H-spiro[piperidine-4,2′-quinazolin]-4′(3′H)-one]",5.00 to 6.00
2,"O=C1c2ccc(Br)cc2NC2(CCN(Cc3ccc(F)c(F)c3)CC2)N1c1ccc(Cl)cc1 [Compound 25, 7′-Bromo-3′-(4-chlorophenyl)-1-(3,4-difluorobenzyl)-1′H-spiro[piperidine-4,2′-quinazolin]-4′(3′H)-one]",> 6.00
3,"O=C1c2ccc(Br)cc2NC2(CCN(Cc3cccc4cnccc34)CC2)N1c1ccc(OC(F)(F)F)cc1 [Compound 27, 7′-Bromo-1-(isoquinolin-5-ylmethyl)-3′-(4-(trifluoromethoxy)phenyl)-1′H-spiro[piperidine-4,2′-quinazolin]-4′(3′H)-one]",> 6.00
4,"COc1ccc(N2C(=O)c3ccccc3NC23CCN(Cc2ccccc2C(F)(F)F)CC3)cc1 [Compound 66, 3′-(4-Methoxyphenyl)-1-(2-(trifluoromethyl)benzyl)-1′H-spiro[piperidine-4,2′-quinazolin]-4′(3′H)-one]",5.00 to 6.00
5,"COc1ccc(N2C(=O)c3ccccc3NC23CCN(Cc2cccc(C(F)(F)F)c2)CC3)cc1 [Compound 96, 3′-(4-Methoxyphenyl)-1-(3-(trifluoromethyl)benzyl)-1′H-spiro[piperidine-4,2′-quinazolin]-4′(3′H)-one]",5.00 to 6.00
6,"COc1ccc(N2C(=O)c3ccc(OC)cc3NC23CCN(Cc2ccc(F)c(F)c2)CC3)cc1 [Compound 39, 1-(3,4-Difluorobenzyl)-7′-methoxy-3′-(4-methoxyphenyl)-1′H-spiro[piperidine-4,2′-quinazolin]-4′(3′H)-one]",> 6.00
7,"O=C1c2ccc(F)cc2NC2(CN(Cc3ccccc3Cl)C2)N1c1ccc(OC(F)(F)F)cc1 [Compound 70, 1-(2-Chlorobenzyl)-7′-fluoro-3′-(4-(trifluoromethoxy)phenyl)-1′H-spiro[azetidine-3,2′-quinazolin]-4′(3′H)-one]",5.00 to 6.00
8,"CCC(c1ccccc1)N1CCC2(CC1)Nc1cc(Br)ccc1C(=O)N2c1ccc(Cl)cc1 (stereo not drawn) [Compound 61, 7′-Bromo-3′-(4-chlorophenyl)-1-(1-phenylpropyl)-1′H-spiro[piperidine-4,2′-quinazolin]-4′(3′H)-one]",> 6.00
9,"O=C1c2ccc(Br)cc2NC2(CCN(Cc3ccccn3)CC2)N1c1ccc(OC(F)(F)F)cc1 [Compound 103, 7′-Bromo-1-(pyridin-2-ylmethyl)-3′-(4-(trifluoromethoxy)phenyl)-1′H-spiro[piperidine-4,2′-quinazolin]-4′(3′H)-one]",5.00 to 6.00
10,"CSc1ccc(N2C(=O)c3ccc(Br)cc3NC23CCN(Cc2ccc(F)c(F)c2)CC3)cc1 [Compound 5, 7′-Bromo-1-(3,4-difluorobenzyl)-3′-(4-(methylthio)phenyl)-1′H-spiro[piperidine-4,2′-quinazolin]-4′(3′H)-one]",> 6.00
11,"CCc1ccc2c(c1)NC1(CCN(Cc3ccc(F)c(F)c3)CC1)N(c1ccc(OC)cc1)C2=O [Compound 63, 1-(3,4-Difluorobenzyl)-7′-ethyl-3′-(4-methoxyphenyl)-1′H-spiro[piperidine-4,2′-quinazolin]-4′(3′H)-one]",> 6.00
12,"CSc1ccc(N2C(=O)c3ccc(-c4ccco4)cc3NC23CCN(Cc2ccc(F)c(F)c2)CC3)cc1 [Compound 41, 1-(3,4-Difluorobenzyl)-7′-(furan-2-yl)-3′-(4-(methylthio)phenyl)-1′H-spiro[piperidine-4,2′-quinazolin]-4′(3′H)-one]",> 6.00
13,"COc1ccc(N2C(=O)c3ccc(-c4nccs4)cc3NC23CCN(Cc2ccc(F)c(F)c2)CC3)cc1 [Compound 14, 1-(3,4-Difluorobenzyl)-3′-(4-methoxyphenyl)-7′-(thiazol-2-yl)-1′H-spiro[piperidine-4,2′-quinazolin]-4′(3′H)-one]",> 6.00
14,"O=C1c2ccc(-c3ccncn3)cc2NC2(CCN(Cc3ccc(F)c(F)c3)CC2)N1c1ccc(OC(F)(F)F)cc1 [Compound 9, 1-(3,4-Difluorobenzyl)-7′-(pyrimidin-4-yl)-3′-(4-(trifluoromethoxy)phenyl)-1′H-spiro[piperidine-4,2′-quinazolin]-4′(3′H)-one]",> 6.00
15,"O=C1c2ccc(Br)cc2NC2(CCN(Cc3cnc(Br)s3)CC2)N1c1ccc(OC(F)(F)F)cc1 [Compound 110, 7′-Bromo-1-((2-bromothiazol-5-yl)methyl)-3′-(4-(trifluoromethoxy)phenyl)-1′H-spiro[piperidine-4,2′-quinazolin]-4′(3′H)-one]",5.00 to 6.00
16,"COC(=O)c1ccc2c(c1)NC1(CCN(Cc3ccc(F)c(F)c3)CC1)N(c1ccc(OC)cc1)C2=O [Compound 4, Methyl 1-(3,4-difluorobenzyl)-3′-(4-methoxyphenyl)-4′-oxo-3′,4′-dihydro-1′H-spiro[piperidine-4,2′-quinazoline]-7′-carboxylate]",> 6.00
17,"O=C1c2ccc(Br)cc2NC2(CCN(C(c3cccc(F)c3)C(F)(F)F)CC2)N1c1ccc(OC(F)(F)F)cc1 (stereo not drawn) [Compound 43, 7′-Bromo-1-(2,2,2-trifluoro-1-(3-fluorophenyl)ethyl)-3′-(4-(trifluoromethoxy)phenyl)-1′H-spiro[piperidine-4,2′-quinazolin]-4′(3′H)-one]",> 6.00
18,"CN(C)Cc1ccc(-c2ccc3c(c2)NC2(CCN(Cc4ccc(F)c(F)c4)CC2)N(c2ccc(OC(F)(F)F)cc2)C3=O)o1 [Compound 74, 1-(3,4-Difluorobenzyl)-7′-(5-((dimethylamino)methyl)furan-2-yl)-3′-(4-(trifluoromethoxy)phenyl)-1′H-spiro[piperidine-4,2′-quinazolin]-4′(3′H)-one]",5.00 to 6.00
19,"CCC(c1ccc(F)c(F)c1)N1CCC2(CC1)Nc1cc(Br)ccc1C(=O)N2c1ccc(OC(F)(F)F)cc1 (stereo not drawn) [Compound 22, 7′-Bromo-1-(1-(3,4-difluorophenyl)propyl)-3′-(4-(trifluoromethoxy)phenyl)-1′H-spiro[piperidine-4,2′-quinazolin]-4′(3′H)-one]",> 6.00
20,"CC(C)OC(=O)c1ccc2c(c1)NC1(CCN(Cc3ccc(F)c(F)c3)CC1)N(c1ccc(OC(F)(F)F)cc1)C2=O [Compound 31, Isopropyl 1-(3,4-difluorobenzyl)-4′-oxo-3′-(4-(trifluoromethoxy)phenyl)-3′,4′-dihydro-1′H-spiro[piperidine-4,2′-quinazoline]-7′-carboxylate]",> 6.00
21,COc1ccc(N2C(=O)c3ccc(C)cc3NC23CCN(Cc2ccc(F)c(F)c2)CC3)cc1 [Compound 60],> 6.00
22,"O=C1c2ccc(Br)cc2NC2(CCN(Cc3ccnc4ccccc34)CC2)N1c1ccc(OC(F)(F)F)cc1 [Compound 47, 7′-Bromo-1-(quinolin-4-ylmethyl)-3′-(4-(trifluoromethoxy)phenyl)-1′H-spiro[piperidine-4,2′-quinazolin]-4′(3′H)-on]",> 6.00
23,"COc1ccc(N2C(=O)c3ccccc3NC23CN(Cc2ccc(C)cc2)C3)cc1 [Compound 72, 3′-(4-Methoxyphenyl)-1-(4-methylbenzyl)-1′H-spiro[azetidine-3,2′-quinazolin]-4′(3′H)-one]",5.00 to 6.00
24,"O=C1c2ccc(N3CCOCC3)cc2NC2(CCN(Cc3ccc(F)c(F)c3)CC2)N1c1ccc(OC(F)(F)F)cc1 [Compound 21, 1-(3,4-Difluorobenzyl)-7′-morpholino-3′-(4-(trifluoromethoxy)phenyl)-1′H-spiro[piperidine-4,2′-quinazolin]-4′(3′H)-one]",> 6.00
